The record followed here is patent US9474790B2, “Stable, protracted GLP-1/glucagon receptor co-agonists for medical use” (Novo Nordisk A/S, priority 2013, dated 2016).

Series [1] addresses T1, human GLP-1 receptor (Homo sapiens, UniProt P43220).
T1 construct: expressed in transfected cells; host or cells: BHK cells (parent BHKTS13), clone FCW467-12A/KZ10-1, with CRE luciferase
Put plainly: GLP-1 receptor potency, CRE luciferase reporter gene assay in BHK cells. It is filed as cell-based. The conditions noted are these: BHK cells expressing human GLP-1 receptor, read-out: EC50 GLP-1R. The method in brief: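 BHK cells stably expressing human GLP-1 receptor with CRE-luciferase reporter, 5×10EE3 cells/well in phenol red-free DMEM with 10 mM Hepes, 2% ovalbumin, 0.2% Pluronic F-68. Compounds at final 1×10EE-6 to 1×10EE-13 M, 3 h at 37° C; steadylite luminescence; EC50 by four-parameter fit, in pM.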
In general terms: In a reporter assay the amount or activity of a reporter protein is the signal.

Series [2] has as its target T2, human glucagon receptor (Homo sapiens, UniProt P47871).
T2 construct: expressed in transfected cells; host or cells: BHK cells (parent BHK570, CRE luciferase clone BHK/KZ10-20-48), clone pLJ6'-4-25
The experiment in a line: Glucagon receptor potency, CRE luciferase reporter gene assay in BHK cells. The format is cell-based. The conditions noted are these: BHK cells expressing human glucagon receptor, read-out: EC50 GlucR. As to the method: The purpose of this example was to test the potency, of the glucagon derivatives of the invention, in vitro. The in vitro potency is the measure of human GLP-1 receptor or glucagon receptor activation, respectively, in a whole cell assay.
In vitro potency was determined by measuring the response of human GLP-1 or glucagon receptor, respectively, in a reporter gene assay. The assay was performed in a stably transfected BHK cell line that expresses either the human GLP-1 receptor or the human glucagon receptor and contains the DNA for the cAMP response element (CRE) coupled to a promoter and the gene for firefly luciferase (CRE luciferase). […] When assay incubation was completed, the luciferase substrate (luciferin) was added and the enzyme converted luciferin to oxyluciferin and produces bioluminescence. The luminescence was measured as the readout for the assay.
The cells used in this assay (clone pLJ6′-4-25) were BHK cells with BHK570 as a parent cell line expressing the CRE luciferase gene (clone BHK/KZ10-20-48) and were established by further transfection with the human glucagon receptor (clone pLJ6′ in pHZ-1 vector).
The cells were cultured at 5% CO2 in DMEM medium with 10% FBS, 1×GlutaMAX, 1 mg/ml G418, 240 nM MTX (methotrexate) and 1% pen/strep (penicillin/streptomycin). They were aliquoted and stored in liquid nitrogen. Before each assay, an aliquot was taken up and washed three times in PBS before being suspended at the desired concentration in assay medium. For 96-well plates the suspension was made to give a final concentration of 5×10EE3 cells/well.
The following chemicals were used in the assay: Pluronic F-68 (10%) (Gibco 2404), ovalbumin (Sigma A5503), DMEM w/o phenol red (Gibco 11880-028), 1 M Hepes (Gibco 15630), Glutamax 100× (Gibco 35050) and steadylite plus (PerkinElmer 6016757).
Assay Medium consisted of DMEM w/o phenol red, 10 mM Hepes, 1× GlutaMAX, 2% Ovalbumin and 0.2% Pluronic F-68.
Cell stocks were thawed in a 37° C. water bath. Cells were washed three times in PBS. The cells were counted and adjusted to 5×10EE3 cells/50 μl (1×10EE5 cells/ml) in Assay Medium. A 50 μl aliquot of cells was transferred to each well in the assay plate.
Stocks of the test compounds and reference compounds were diluted to a concentration of […] in Assay Medium. Compounds were diluted 10-fold to give the following concentrations: 2×10EE-6 M, 2×10EE-7 M, 2×10EE-8 M; 2×10EE-9 M, 2×10EE-10 M, 2×10EE-11 M, 2×10EE-12 M and 2×10EE-13 M. For each compound a blank assay medium control was also included.
A 50 μl aliquot of compound or blank was transferred from the dilution plate to the assay plate. Compounds were tested at the following final concentrations: 1×10EE-6 M, 1×10EE-7 M, 1×10EE-8 M; 1×10EE-9 M, 1×10EE-10 M, 1×10EE-11 M and 1×10EE-12 M and 1×10EE-13 M.
The assay plate was incubated for 3 h in a 5% CO2 incubator at 37° C. The assay plate was removed from the incubator and allowed to stand at room temperature for 15 min. A 100 μl aliquot of steadylite plus reagent was added to each well of the assay plate (reagent is light sensitive). Each assay plate was covered with aluminum foil to protect it from light and shaken for 30 min at room temperature. Each assay plate was read in a Perkin Elmer TopCount NXT instrument.
The data from the TopCount instrument was transferred to GraphPad Prism software. The software performed a non-linear regression (log(agonist) vs response-Variable slope (four parameter)). EC50 values were calculated by the software and reported in pM.

A short description of series [3]: Chemical stability assessment by RP-UPLC. The format is physicochemical. As to conditions: 333 μM, 8 mM phosphate buffer pH 7.3, 37° C. vs 5° C. As to the method:
The purpose of this assay was to assess the chemical stability of the glucagon derivatives of the invention in aqueous solutions.
Chemical stability of glucagon derivatives or analogues was investigated by RP-UPLC separation and UV detection. Lyophilized samples were dissolved in a 8 mM Phosphate buffer pH 8.6, followed by adjustment to pH 7.3.using HCl to a final concentration of 333 μM. Samples were incubated for 14 days at 5° C. and 37° C. followed by RP-UPLC analysis. Purity was defined as the area percentage of the main peak in relation to the total area of all integrated peaks in each chromatogram. Purity loss after 14 days at 37° C. was determined as the difference in purity between the samples incubated at 5° C. and 37° C., divided by the purity of the sample after incubation for 14 days at 5° C.
RP-UPLC analysis was performed using a Waters BEH130 2.1 mm×150 mm, 1.7 μm column operated at 50° C. and a flow rate of 0.4 mL/min using a mobile phase system consisting of A: 0.05% TFA in MQ-water B: 0.05% TFA in Acetonitrile. UV-detection was performed at 215 nm. The typical gradient profile used for most of the samples is shown below.
For some individual derivatives or analogues eluting at substantially different retention times compared with the majority of derivatives or analogues, some adjustments to the gradient profile were made to better enable purity assessment comparison across samples. The data confirmed the improved chemical stability of the glucagon derivatives of this invention.

Series [4] in a line: Thioflavin T (ThT) fibrillation assay for physical stability. It is filed as physicochemical. The conditions noted are these: 250 μM in 10 mM HEPES buffer, pH 7.5, 37° C., shaking 960 rpm. The method, boiled down:
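Peptide at 250 μM in 10 mM HEPES pH 7.5 with 1 μM ThT, at 37° C with 960 rpm orbital shaking. Fluorescence (ex 444/em 485 nm) read every 20 min after 10 min pre-incubation; sigmoidal fit gives lag time (t0−2τ) and kapp (1/τ). Recovery is RP-HPLC peptide in the centrifuged, 0.22 μm-filtered supernatant as % of initial.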

Numbered stars: 1 amine (or outer) side, 2 acyl side, 3 side chain; on linkers, the order of the positions; unused ones are H or OH. Square brackets hold non-standard residues; d marks the D form. Side chains are listed from the residue outwards. Peptide text beside a SMILES is read from it. * marks the point of attachment. C18 diacid = O=C(O)CCCCCCCCCCCCCCCCC(=O)*; γGlu = O=C(O)[C@H](CCC(=O)[*:2])N[*:1]; AEEA = NCCOCCOCC(=O)O; Aib = CC(C)(N)C(=O)O

T2 sequence (P47871 26-477): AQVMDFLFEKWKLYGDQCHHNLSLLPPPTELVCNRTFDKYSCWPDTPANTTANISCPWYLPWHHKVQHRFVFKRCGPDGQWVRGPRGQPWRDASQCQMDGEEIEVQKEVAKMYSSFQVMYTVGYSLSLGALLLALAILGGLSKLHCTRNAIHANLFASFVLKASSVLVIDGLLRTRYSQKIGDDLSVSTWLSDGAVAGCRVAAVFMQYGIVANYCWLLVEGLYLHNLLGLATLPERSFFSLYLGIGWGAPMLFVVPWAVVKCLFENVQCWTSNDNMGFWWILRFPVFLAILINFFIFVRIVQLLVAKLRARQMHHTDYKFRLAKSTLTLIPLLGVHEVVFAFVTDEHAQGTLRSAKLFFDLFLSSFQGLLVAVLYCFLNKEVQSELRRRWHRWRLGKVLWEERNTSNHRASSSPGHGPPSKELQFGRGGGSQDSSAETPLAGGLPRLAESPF
T1 sequence (P43220 24-463): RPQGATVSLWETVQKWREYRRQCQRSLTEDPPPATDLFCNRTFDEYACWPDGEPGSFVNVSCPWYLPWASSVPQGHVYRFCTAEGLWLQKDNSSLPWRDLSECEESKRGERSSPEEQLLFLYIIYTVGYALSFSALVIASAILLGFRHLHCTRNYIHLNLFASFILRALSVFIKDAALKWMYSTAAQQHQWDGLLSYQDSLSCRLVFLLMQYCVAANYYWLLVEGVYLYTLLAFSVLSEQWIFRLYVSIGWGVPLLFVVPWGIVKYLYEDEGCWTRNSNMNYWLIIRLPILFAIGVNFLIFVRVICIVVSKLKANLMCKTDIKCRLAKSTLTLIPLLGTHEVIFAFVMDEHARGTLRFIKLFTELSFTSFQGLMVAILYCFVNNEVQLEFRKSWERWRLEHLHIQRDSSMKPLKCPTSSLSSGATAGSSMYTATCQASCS

For orientation: EC50 means the midpoint of the concentration-response curve. As to `CC(C)C[C@H](NC(=O)[C@H](Cc1ccc(O)cc1)NC(=O)[C@H](CCCCN)NC(=O)[C@H](CO)NC(=O)[C@H](CC(C)C)NC(=O)[C@H](CC(=O)O)NC(=O)[C@H](CO)NC(=O)[C@@H](NC(=O)[C@H](Cc1ccccc1)NC(=O)[C@@H](NC(=O)CNC(=O)[C@H](CCC(N)=O)NC(=O)C(C)(C)NC(=O)[C@@H](N)Cc1c[nH]cn1)[C@@H](C)O)[C@@H](C)O)C(=O)N[C@@H](CC(=O)O)C(=O)N[C@@H](CCCCNC(=O)CC[C@H](NC(=O)CC[C@H](NC(=O)COCCOCCNC(=O)COCCOCCNC(=O)CC[C@H](NC(=O)CCCCCCCCCCCCCCCCC(=O)O)C(=O)O)C(=O)O)C(=O)O)C(=O)N[C@@H](CCCNC(=N)N)C(=O)N[C@@H](CCCNC(=N)N)C(=O)N[C@@H](C)C(=O)N[C@@H](CCCNC(=N)N)C(=O)N[C@@H](CC(=O)O)C(=O)N[C@@H](Cc1ccccc1)C(=O)N[C@H](C(=O)N[C@@H](CCC(N)=O)C(=O)N[C@@H](Cc1c[nH]c2ccccc12)C(=O)N[C@@H](CC(C)C)C(=O)N[C@@H](CC(C)C)C(=O)N[C@@H](CO)C(=O)N[C@H](C(N)=O)[C@@H](C)O)C(C)C` [Example 1, N^ε16-[(4S)-4-carboxy-4-[[(4S)-4-carboxy-4-[[2-[2-[2-[[2-[2-[2-[[(4S)-4-carboxy-4-(17-carboxyheptadecanoylamino)butanoyl]amino]ethoxy]ethoxy]acetyl]amino]ethoxy]ethoxy]acetyl]amino]butanoyl]amino]butanoyl]-[Aib2,Leu10,Lys16,Arg20,Leu27,Ser28]-Glucagon amide] (H-H[Aib]QGTFTSDLSKYLDK([γGlu-γGlu-AEEA-AEEA-γGlu-C18 diacid])RRARDFVQWLLST-NH2; N-terminus assumed), the EC50 stood at 0.008 nM in series [1] and 0.054 nM in series [2].
As to `CC(C)C[C@H](NC(=O)[C@H](Cc1ccc(O)cc1)NC(=O)[C@H](CCCCN)NC(=O)[C@H](CO)NC(=O)[C@H](CC(C)C)NC(=O)[C@H](CC(=O)O)NC(=O)[C@H](CO)NC(=O)[C@@H](NC(=O)[C@H](Cc1ccccc1)NC(=O)[C@@H](NC(=O)CNC(=O)[C@H](CCC(N)=O)NC(=O)C(C)(C)NC(=O)[C@@H](N)Cc1c[nH]cn1)[C@@H](C)O)[C@@H](C)O)C(=O)N[C@@H](CC(=O)O)C(=O)N[C@@H](CO)C(=O)N[C@@H](CCCNC(=N)N)C(=O)N[C@@H](CCCNC(=N)N)C(=O)N[C@@H](C)C(=O)N[C@@H](CCCNC(=N)N)C(=O)N[C@@H](CC(=O)O)C(=O)N[C@@H](Cc1ccccc1)C(=O)N[C@H](C(=O)N[C@@H](CCC(N)=O)C(=O)N[C@@H](Cc1c[nH]c2ccccc12)C(=O)N[C@@H](CC(C)C)C(=O)N[C@@H](CC(C)C)C(=O)N[C@@H](CCCCNC(=O)CC[C@H](NC(=O)CC[C@H](NC(=O)COCCOCCNC(=O)COCCOCCNC(=O)CC[C@H](NC(=O)CCCCCCCCCCCCCCCCC(=O)O)C(=O)O)C(=O)O)C(=O)O)C(=O)N[C@H](C(N)=O)[C@@H](C)O)C(C)C` [Example 4, N^ε28-[(4S)-4-carboxy-4-[[(4S)-4-carboxy-4-[[2-[2-[2-[[2-[2-[2-[[(4S)-4-carboxy-4-(17-carboxyheptadecanoylamino)butanoyl]amino]ethoxy]ethoxy]acetyl]amino]ethoxy]ethoxy]acetyl]amino]butanoyl]amino]butanoyl]-[Aib2,Leu10,Arg20,Leu27,Lys28]-Glucagon amide] (H-H[Aib]QGTFTSDLSKYLDSRRARDFVQWLLK([γGlu-γGlu-AEEA-AEEA-γGlu-C18 diacid])T-NH2; N-terminus assumed), the EC50 in series [1] was found to be 0.004 nM; in series [2] it was 0.016 nM.
Consider `CC(C)C[C@H](NC(=O)[C@H](Cc1ccc(O)cc1)NC(=O)[C@H](CCCCN)NC(=O)[C@H](CO)NC(=O)[C@H](CC(C)C)NC(=O)[C@H](CC(=O)O)NC(=O)[C@H](CO)NC(=O)[C@@H](NC(=O)[C@H](Cc1ccccc1)NC(=O)[C@@H](NC(=O)CNC(=O)[C@H](CCC(N)=O)NC(=O)C(C)(C)NC(=O)[C@@H](N)Cc1c[nH]cn1)[C@@H](C)O)[C@@H](C)O)C(=O)N[C@@H](CCC(=O)O)C(=O)N[C@@H](CO)C(=O)N[C@@H](CCCCN)C(=O)N[C@@H](CCCNC(=N)N)C(=O)N[C@@H](C)C(=O)N[C@@H](CCCNC(=N)N)C(=O)N[C@@H](CCC(=O)O)C(=O)N[C@@H](Cc1ccccc1)C(=O)N[C@H](C(=O)N[C@@H](CCC(N)=O)C(=O)N[C@@H](Cc1c[nH]c2ccccc12)C(=O)N[C@@H](CC(C)C)C(=O)N[C@@H](CC(C)C)C(=O)N[C@@H](CCCCNC(=O)CC[C@H](NC(=O)CC[C@H](NC(=O)COCCOCCNC(=O)COCCOCCNC(=O)CC[C@H](NC(=O)CCCCCCCCCCCCCCCCC(=O)O)C(=O)O)C(=O)O)C(=O)O)C(=O)N[C@H](C(N)=O)[C@@H](C)O)C(C)C` [Example 22, N^ε29-[(4S)-4-carboxy-4-[[(4S)-4-carboxy-4-[[2-[2-[2-[[2-[2-[2-[[(4S)-4-carboxy-4-(17-carboxyheptadecanoylamino)butanoyl]amino]ethoxy]ethoxy]acetyl]amino]ethoxy]ethoxy]acetyl]amino]butanoyl]amino]butanoyl]-[Aib2,Leu10,Glu15,Lys17,Arg20,Glu21,Leu27,Lys28]-Glucagon amide] (H-H[Aib]QGTFTSDLSKYLESKRAREFVQWLLK([γGlu-γGlu-AEEA-AEEA-γGlu-C18 diacid])T-NH2; N-terminus assumed), for which the “Purity loss; 14 days at 37° C.” value in series [3] is 1%. The compound also registered a THT assay Lag time (Ex. 76) in series [4] of 45 h.
